In paper PMC5124248, “Antitumor activity of TY-011 against gastric cancer by inhibiting Aurora A, Aurora B and VEGFR2 kinases” (Journal of Experimental & Clinical Cancer Research : CR, 2016):

Key:
[1] = tested on: HUVECs; assay: HUVEC tube formation assay; assay type: cell-based, human; conditions: HUVECs on Matrigel, 6 h
Protocol: HUVECs were seeded onto pre-cooled 96-well tissue culture plate coated with Matrigel™ (BD Biosciences, FranklinLakes, NJ). After the cells attached, the cells were treated by various concentration of TY-011 or equivalent amount of DMSO. The plate was incubated at 37 °C, 5% CO2 humidified atmosphere for 6 h, then cell morphology was captured with a microscopy (Olympus IX73, Tokyo, Japan).

[2] = tested on: p-Histone H3 (S10), substrate of Aurora B; assay: Cellular Histone H3 phosphorylation (western blot, immunofluorescence) in MGC-803 cells; assay type: cell-based, human
Protocol: The proteins of whole cell lysates were prepared in RIPA buffer containing protease and phosphatase inhibitors (Thermo Fisher Scientific, Waltham, MA, USA), and quantified by the bicinchoninic acid (BCA) method. Immunoblotting analysis of proteins in cell lysates was performed as previously described. Primary antibodies used were as follows: anti-Aurora A (#12100), anti-p-Aurora A (Thr288) (#3079), anti-Histone H3 (#4499), and anti-p-Histone H3 (Ser10) (#9701), and anti-cleaved caspase 3 (#9661) were purchased from Cell Signaling Technology (Danvers, MA, USA); anti-PARP-1 (#sc-8007) and anti-GAPDH (#sc-25778) were purchased from Santa Cruz (CA, USA).
Cells were cultured on glass slides coated with 0.05 mg/ml PDL (Sigma-aldrich, St. Louis, MO, USA) in the presence of TY-011 (0.8 μM) or equivalent amount of DMSO for 24 h. The cells were fixed in 4% paraformaldehyde at room temperature, then permeabilized with 0.15% Triton-X100 and blocked in 3% BSA in PBS. The primary antibodies were incubated with slides at 1:100 dilution in PBS containing 3% BSA in a wet chamber at 4 °C overnight. […] The images were captured with FCFM (fluorescence confocal microscope) (Olympus FV1000 IX81, Tokyo, Japan) under appropriate excitation and emission filters or phase-contrast microscope (Olympus IX73, Tokyo, Japan). […]

[3] = tested on: AGS cells; assay: CCK-8 cell proliferation assay, AGS; assay type: cell-based; conditions: Homo sapiens, CCK-8, Fig. 3
Protocol: During the logarithmic growth phase, each cell line was seeded in a 96-well tissue culture plate (Thermo Fisher Scientific, Waltham, MA, USA) at a predetermined density in complete medium, attached overnight and treated with compound for the indicated time. The medium was discarded and replaced with 10% CCK-8 (Dojindo, Kumamoto, Japan) in complete medium, then incubated the plates for another 2 h. The OD450 was measured with SpectraMax M5 (Molecular Devices, CA, USA). A background absorbance of ODblank was subtracted from all wells. The survival rate was determined with following formula: Survival rate (%) = ODcompound/ODDMSO × 100%. The IC50 values were calculated by concentration − response curve fitting using the four parameter method.

[4] = tested on: MGC-803 xenograft tumor tissues; assay: TUNEL staining of xenograft tumor tissues; assay type: in vivo, BALB/c nu/nu mice; conditions: 9 mg/kg
From the text: (§1) Female BALB/c nu/nu mice (5–6 weeks, 16–18 g) were obtained from Sino-British SIPPR/BK Lab. Animal Ltd, Shanghai, China, with the certification number of 2008001638201. The animals were housed in specific pathogen-free (SPF) conditions at Key Laboratory of Brain Functional Genomics, Ministry of Education, and were acclimatized for a week prior to use. Human MGC-803 xenografts were established by subcutaneously inoculating 5 × 10^6 cells into nude mice. When the tumors reached a mean group size of 100 ~ 150 mm^3, the mice were randomized into control and treatment groups to receive treatment accordingly. TY-011 was orally administered at 3, 6 and 9 mg/kg once a day for 13 days. […] The tumor growth was recorded with the measurement of length (L) and width (W) by caliper every other day, and calculated as tumor volume (V) = L × W^2/2. Meanwhile, the body weights of mice were recorded. The tumor volume at day n was expressed as relative tumor volume (RTV) according to the following formula: RTV% = (TVn/TV0) ×100%, where TVn is the tumor volume at day n and TV0 is the tumor volume at day 0. The therapeutic effect of treatment was calculated with formula T/C (%) = mean RTV of the treated group/mean RTV of the control group × 100%. […] The tumor regression of individual mouse was defined as the tumor volume at the end was less than the tumor volume when treatment was initiated. […]

[5] = tested on: CD31 (angiogenesis marker) in tumor tissues; assay: CD31 immunohistochemistry of xenograft tumor tissues; assay type: in vivo, BALB/c nu/nu mice; conditions: TY-011 treated group vs control group
From the text: as §1

[6] = tested on: SGC-7901 cells; assay: Annexin V/PI apoptosis analysis, SGC-7901; assay type: cell-based, human; conditions: 48 h (14.1% control)
Protocol: Apoptosis was detected by FITC Annexin V Apoptosis Detection Kit I according to the manufacturer’s instructions (Dojindo, Kumamoto, Japan) to determine the phosphatidyl serine exposure. Apoptotic cells were quantified by a flow cytometer (Guava EasyCyte 6HT-2 L, Merck Millipore, Billerica, MA, USA) using the InCyte software. At least 10 000 cells were analyzed for each data point.

CCc1cc2c(cn1)C(c1ccccc1Cl)=Nc1c(n[nH]c1C)N2 [TY-011, 9-(2-chloro-phenyl)-6-ephyl-1-methyl-2,4-dihydro-2,3,4,7,10-pentaaza-benzo[f]azulene] was tested, and the “tube meshes (tube formation)” value [1] was “disturbed”, the “p-Histone H3 (S10), immunofluorescence” value ([2]; MGC-803, 0.8 μM, 24 h) was “decreased sharply” and the “phosphorylation of Histone H3 (S10), western blot” value ([2]; MGC-803 synchronized with nocodazole (100 nM) 16 h, then various concentrations for 24 h) was “strongly inhibited”. For the same molecule, the IC50 [3] was 960 ± 100 nM, the “apoptosis in tumor tissues (TUNEL)” value [4] was “obvious increase in apoptosis” and the “CD31 staining in tumor tissues” value [5] was “much less than control group”. The apoptotic cells ([6]; SGC-7901, 0.25 μM) was 17.2%, the apoptotic cells ([6]; SGC-7901, 0.5 μM) was 28.4% and the apoptotic cells ([6]; SGC-7901, 1 μM) was 54.3%.
